Experimental data published in ChEMBL document CHEMBL5303304, “EUbOPEN Chemogenomics Library - IncuCyte” (2023).

Legend:
Type in all cases: toxicity, cell-based
Fibroblast = assay: Incucyte cell viability with human fibroblast; conditions: 10 µM, compound concentration 10 uM
U2OS = assay: Incucyte cell viability with U2OS; conditions: human, 10 µM, compound concentration 10 uM
HEK-293T = assay: Incucyte cell viability with HEK293T; conditions: human, 10 µM, compound concentration 10 uM
Further: unitless GR value; below 1 slowed growth and below 0 cell loss.

SMILES | Growth Rate (Fibroblast; 0 h, replicate number 1) | Growth Rate (Fibroblast; 0 h, replicate number 2) | Growth Rate (Fibroblast; 6 h, replicate number 2) | Growth Rate (Fibroblast; 12 h, replicate number 2) | Growth Rate (U2OS; 0 h, replicate number 1) | Growth Rate (U2OS; 6 h, replicate number 1) | Growth Rate (U2OS; 6 h, replicate number 2) | Growth Rate (U2OS; 12 h, replicate number 1) | Growth Rate (U2OS; 12 h, replicate number 2) | Growth Rate (U2OS; 18 h, replicate number 1) | Growth Rate (U2OS; 24 h, replicate number 1) | Growth Rate (U2OS; 24 h, replicate number 2) | Growth Rate (HEK-293T; 0 h, replicate number 1) | Growth Rate (HEK-293T; 0 h, replicate number 2) | Growth Rate (Fibroblast; 24 h, replicate number 1) | Growth Rate (HEK-293T; 6 h, replicate number 2) | Growth Rate (HEK-293T; 12 h, replicate number 2) | Growth Rate (HEK-293T; 18 h, replicate number 2) | Growth Rate (HEK-293T; 24 h, replicate number 2) | Growth Rate (Fibroblast; 6 h, replicate number 1) | also measured
C[C@@H]1OCC2(CCN(c3cnc(Sc4ccnc(N)c4Cl)c(N)n3)CC2)[C@@H]1N [BATOPROTAFIB] | -1 | 0.47 | -0.69 | 0.8 | 0.89 | 0.3 | 0.99 | 0.53 | 0.78 | 0.78 | 0.69 | 0.99 | 0.52 | -0.24 |  |  |  |  |  |  | Growth Rate (U2OS; 18 h, replicate number 2): 0.91
COc1cc2c(cc1CC=C(C)C)C(=O)C[C@@H](c1ccc(O)cc1)O2 [BAVACHININ A] |  | -0.08 | 0.81 |  | -0.43 |  | 0.85 | 0.89 |  | 0.89 | 0.73 | 0.99 | -0.07 | -0.67 | 0.99 | 0.97 | 0.94 | 0.89 | 0.92 |  | 
Cc1ccccc1Oc1cc(-n2c(=O)cc(C(F)(F)F)[nH]c2=O)c2ccccc2c1Cl [BAY-069] | 0.91 | 0.05 |  |  | -0.77 | 0.02 | 0.72 | -0.7 | 0.77 | 0.63 | 0.81 | 0.86 | 0.78 | -0.96 | 0.75 | 0.24 | 0.38 | 0.39 | 0.45 | 0.84 | Growth Rate (Fibroblast; 12 h, replicate number 1): 0.51; Growth Rate (Fibroblast; 18 h, replicate number 1): 0.76; Growth Rate (U2OS; 0 h, replicate number 2): 0.42; Growth Rate (U2OS; 18 h, replicate number 2): 0.86; Growth Rate (HEK-293T; 6 h, replicate number 1): 0.59; Growth Rate (HEK-293T; 12 h, replicate number 1): 0.74; Growth Rate (HEK-293T; 18 h, replicate number 1): 0.72; Growth Rate (HEK-293T; 24 h, replicate number 1): 0.64
CC[C@@H](Nc1c(C#N)c(-c2ccc(-c3cccc(C)c3F)cc2)nc2cnccc12)C(=O)O [BAY-091] | -0.38 | -0.33 | 0.39 | 0.58 |  | 0.82 |  | 0.7 |  | 0.68 | 0.81 |  |  | 0.76 | 0.88 | 0.63 | 0.85 | 0.85 | 0.88 | 0.59 | Growth Rate (Fibroblast; 12 h, replicate number 1): 0.86; Growth Rate (Fibroblast; 18 h, replicate number 1): 0.96; Growth Rate (Fibroblast; 18 h, replicate number 2): 0.73; Growth Rate (Fibroblast; 24 h, replicate number 2): 0.84; Growth Rate (HEK-293T; 6 h, replicate number 1): 0.68; Growth Rate (HEK-293T; 12 h, replicate number 1): 0.65; Growth Rate (HEK-293T; 18 h, replicate number 1): 0.86; Growth Rate (HEK-293T; 24 h, replicate number 1): 0.78
CC[C@H](Nc1c(C#N)c(-c2ccc(-c3cccc(C)c3F)cc2)nc2cnccc12)C(=O)O [BAY-0361] |  |  | 0.85 | 0.93 |  | 0.1 |  | 0.56 |  | 0.74 | 0.91 |  |  | 0.79 | 0.8 | 0.74 | 0.98 | 0.94 | 0.98 | 0.67 | Growth Rate (Fibroblast; 12 h, replicate number 1): 0.65; Growth Rate (Fibroblast; 18 h, replicate number 1): 0.75; Growth Rate (Fibroblast; 24 h, replicate number 2): 0.84; Growth Rate (HEK-293T; 6 h, replicate number 1): 0.67; Growth Rate (HEK-293T; 12 h, replicate number 1): 0.79; Growth Rate (HEK-293T; 18 h, replicate number 1): 0.91; Growth Rate (HEK-293T; 24 h, replicate number 1): 0.92
O[C@]1(C(F)(F)F)CCCC[C@H]1Nc1ccc(F)cc1 [BAY-390] |  | 0.2 |  |  | -0.18 | 0.4 | 0.7 | 0.57 | 0.8 | 0.69 | 0.74 | 0.93 | -0.2 | -0.23 | 0.89 | 0.5 | 0.95 |  |  | 0.19 | Growth Rate (Fibroblast; 12 h, replicate number 1): 0.69; Growth Rate (Fibroblast; 18 h, replicate number 1): 0.78; Growth Rate (U2OS; 0 h, replicate number 2): 0.62
Cc1c(N2CCNCC2)nc2ccc(Br)cc2c1C(=O)NC[C@H](CCC(=O)O)c1ccccc1Cl [BAY-403] | 0.47 | 0.9 | 0.04 | 0.12 | -0.04 | 0.58 | 0.52 | 0.84 |  | 0.91 | 0.95 |  |  | -0.32 |  | 0.8 | 0.81 | 0.9 |  |  | Growth Rate (Fibroblast; 18 h, replicate number 2): 0.51; Growth Rate (Fibroblast; 24 h, replicate number 2): 0.7; Growth Rate (HEK-293T; 6 h, replicate number 1): 0.58; Growth Rate (HEK-293T; 18 h, replicate number 1): 0.76; Growth Rate (HEK-293T; 24 h, replicate number 1): 0.88
C[C@H](c1ccnc(Nc2nc3ccc(-c4cc(N(C)C)ncn4)cc3[nH]2)c1)N1CCN(C(=O)CC(F)(F)F)CC1 [BAY-985] |  | -1 | -0.72 |  | -0.23 |  |  |  | 0.94 |  |  |  | 0.79 | 0.27 | 0.04 | 0.84 | 0.95 | 0.94 | 0.92 | 0.99 | Growth Rate (Fibroblast; 12 h, replicate number 1): -1; Growth Rate (HEK-293T; 6 h, replicate number 1): 0.4
CCc1ccccc1C(=O)Nc1n[nH]c2c(C)c(F)c(C3C(C#N)=C(C)N(C)C(C)=C3C#N)cc12 [BAY-3827] | 0.47 | -0.1 |  |  |  |  | 0.51 | 0.96 | 0.66 | 0.9 | 0.9 | 0.57 | 0.25 | -0.99 |  | 0.11 | 0.34 | 0.66 | 0.71 |  | Growth Rate (U2OS; 18 h, replicate number 2): 0.62; Growth Rate (HEK-293T; 18 h, replicate number 1): 0.99
Cc1c(N2CCCC2)nc2ccc(Br)cc2c1C(=O)NC[C@H](CCC(=O)O)c1ccccc1Cl [BAY-6672] |  |  |  |  | 0.89 | 0.7 | 0.83 | 0.88 | 0.83 | 0.67 | 0.98 | 0.79 | -0.43 |  |  |  | 0.76 | 0.38 | 0.44 | 0.13 | Growth Rate (Fibroblast; 12 h, replicate number 1): 0.91; Growth Rate (Fibroblast; 18 h, replicate number 1): 0.97; Growth Rate (Fibroblast; 18 h, replicate number 2): 0.93; Growth Rate (Fibroblast; 24 h, replicate number 2): 0.89; Growth Rate (U2OS; 0 h, replicate number 2): 0.47; Growth Rate (U2OS; 18 h, replicate number 2): 0.9
COc1cc(N[C@@H]2CCCC[C@]2(O)C(F)(F)F)ccc1F [BAY-9897] |  |  |  |  | -0.16 | 0.53 |  | 0.68 |  | 0.78 | 0.88 | 0.77 | 0.51 | 0.5 |  | 0.88 | 0.88 |  |  |  | Growth Rate (Fibroblast; 12 h, replicate number 1): 0.82; Growth Rate (U2OS; 18 h, replicate number 2): 0.96
Cl.N/C(=N\C(=O)c1nc(Cl)c(N)nc1N)NCc1ccccc1 [BENZAMIL HYDROCHLORIDE] | 0.69 |  | -0.19 | 0.56 | 0.13 |  |  |  | 0.99 | 1 |  | 0.94 |  |  |  | 0.79 | 1 |  |  | -0.25 | Growth Rate (Fibroblast; 18 h, replicate number 2): 0.68; Growth Rate (Fibroblast; 24 h, replicate number 2): 0.74; Growth Rate (HEK-293T; 6 h, replicate number 1): 0.83
Cc1nnc2n1-c1sc3c(c1C(c1ccccc1Cl)=NC2)CC(C(=O)N1CCOCC1)C3 (stereo unspecified) [BEPAFANT] |  | -0.12 |  | 0.71 |  | 0.52 | 0.91 | 0.9 |  |  | 0.89 |  | 0.58 | 0 | 0.87 |  |  | 0.99 |  | 0.34 | Growth Rate (Fibroblast; 18 h, replicate number 1): 0.77; Growth Rate (Fibroblast; 18 h, replicate number 2): 0.79; Growth Rate (Fibroblast; 24 h, replicate number 2): 0.92
CNCc1ccc(-c2cc(-c3nc(-c4ccc(S(=O)(=O)C(C)C)cc4)cnc3N)on2)cc1 [BERZOSERTIB] | -1 |  |  | 0.24 | -1 |  |  | -0.83 | 0.45 | 0.15 | 0.31 | 0.19 |  | -0.99 | -0.05 | -0.05 | -0.51 | -0.38 | -0.26 |  | Growth Rate (Fibroblast; 18 h, replicate number 1): 0.32; Growth Rate (Fibroblast; 18 h, replicate number 2): -0.14; Growth Rate (Fibroblast; 24 h, replicate number 2): -0.29; Growth Rate (U2OS; 18 h, replicate number 2): 0.23; Growth Rate (HEK-293T; 6 h, replicate number 1): -0.67; Growth Rate (HEK-293T; 12 h, replicate number 1): -0.49; Growth Rate (HEK-293T; 18 h, replicate number 1): -0.3; Growth Rate (HEK-293T; 24 h, replicate number 1): -0.24
